Consider 4 cell lines from the supplement of paper PMC10307832.

Common to all, as to assay: relative viability (nuclei count vs DMSO), 5 days (fraction); higher = more cells survive
Compound in the test “AZD5582 + Dasatinib”: C[C@@H](C(=O)N[C@@H](C1CCCCC1)C(=O)N2CCC[C@H]2C(=O)N[C@@H]3[C@@H](CC4=CC=CC=C34)OCC#CC#CCO[C@@H]5CC6=CC=CC=C6[C@@H]5NC(=O)[C@@H]7CCCN7C(=O)[C@H](C8CCCCC8)NC(=O)[C@H](C)NC)NC [AZD5582] + Cc1nc(Nc2ncc(C(=O)Nc3c(C)cccc3Cl)s2)cc(N2CCN(CCO)CC2)n1 [Dasatinib] (partner 0.075 µM)
Summed up:
(§1)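 Medians of duplicate plates are given as relative viability. That measure is the nuclei count in treated wells divided by the count in vehicle wells. Counts were taken on 4× images of lung cancer cell lines in 1536-well plates, 5 days after pin-tool dosing the day after seeding with one drug alone or a fixed anchor-drug dose plus five library-drug doses (not always all listed) in √10 steps.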

Compound in test [1]: Cn1nnc2c(C(N)=O)ncn2c1=O [Temozolomide] + Cc1cc(Nc2cc(N3CCN(C)CC3)nc(Sc3ccc(NC(=O)C4CC4)cc3)n2)n[nH]1 [Tozasertib] (partner 0.1 µM)
The method in brief: as §1

Compound in the test “AZD5582 + Navitoclax”: C[C@@H](C(=O)N[C@@H](C1CCCCC1)C(=O)N2CCC[C@H]2C(=O)N[C@@H]3[C@@H](CC4=CC=CC=C34)OCC#CC#CCO[C@@H]5CC6=CC=CC=C6[C@@H]5NC(=O)[C@@H]7CCCN7C(=O)[C@H](C8CCCCC8)NC(=O)[C@H](C)NC)NC [AZD5582] + CC1(C)CCC(c2ccc(Cl)cc2)=C(CN2CCN(c3ccc(C(=O)NS(=O)(=O)c4ccc(N[C@H](CCN5CCOCC5)CSc5ccccc5)c(S(=O)(=O)C(F)(F)F)c4)cc3)CC2)C1 [Navitoclax] (partner 0.5 µM)
Summed up:
as §1

Compound in test [2]: Cn1nnc2c(C(N)=O)ncn2c1=O [Temozolomide] + Nc1nc2[nH]cc(CCc3ccc(C(=O)N[C@@H](CCC(=O)O)C(=O)O)cc3)c2c(=O)[nH]1 [Pemetrexed] (partner 0.2 µM)
Summed up: as §1

As to NCI-H23, the relative viability was 0.605 with AZD5582 + Dasatinib (first compound 0.001581 µM); 0.644 in the test with AZD5582 + Dasatinib (first compound 0.005 µM); 0.539 with AZD5582 + Dasatinib (first compound 0.01581 µM); 0.269 in the test with AZD5582 + Dasatinib (first compound 0.05 µM); 0.4 in test [1] (first compound 0.2 µM); 0.337 in test [1] (first compound 0.6325 µM). In addition, the relative viability in test [1] (first compound 2 µM) was 0.35; in test [1] (first compound 6.325 µM), 0.381; in test [1] (first compound 20 µM), 0.249; with AZD5582 + Navitoclax (first compound 0.001581 µM) it was 0.594; in the test with AZD5582 + Navitoclax (first compound 0.005 µM) it was 0.512; in the test with AZD5582 + Navitoclax (first compound 0.01581 µM), 0.721. Also, the relative viability came to 0.778 with AZD5582 + Navitoclax (first compound 0.05 µM); 0.825 in test [2] (first compound 0.2 µM); 0.749 in test [2] (first compound 0.6325 µM); 0.716 in test [2] (first compound 2 µM); 0.565 in test [2] (first compound 6.325 µM); 0.677 in test [2] (first compound 20 µM).

Consider NCI-H322M, for which the relative viability with AZD5582 + Dasatinib (first compound 0.001581 µM) is 0.314; with AZD5582 + Dasatinib (first compound 0.005 µM), 0.285; with AZD5582 + Dasatinib (first compound 0.05 µM), 0.269; in test [1] (first compound 0.6325 µM), 0.508; in test [1] (first compound 2 µM) it was 0.484; in test [1] (first compound 6.325 µM), 0.546. The relative viability in test [1] (first compound 20 µM) was determined as 0.4; with AZD5582 + Navitoclax (first compound 0.001581 µM), 1.15; with AZD5582 + Navitoclax (first compound 0.005 µM), 1.32; with AZD5582 + Navitoclax (first compound 0.01581 µM) it was 1.14; in the test with AZD5582 + Navitoclax (first compound 0.05 µM), 1.4; in test [2] (first compound 0.2 µM), 0.56. Besides, the relative viability in test [2] (first compound 0.6325 µM) is 0.591; in test [2] (first compound 2 µM), 0.635; in test [2] (first compound 6.325 µM), 0.499; in test [2] (first compound 20 µM), 0.536.

In the case of NCI-H441, the relative viability worked out at 0.591 in the test with AZD5582 + Dasatinib (first compound 0.001581 µM); 0.726 with AZD5582 + Dasatinib (first compound 0.005 µM); 0.508 with AZD5582 + Dasatinib (first compound 0.05 µM); 0.691 in test [1] (first compound 0.2 µM); 0.775 in test [1] (first compound 0.6325 µM); 0.785 in test [1] (first compound 2 µM). Besides, the relative viability came to 0.62 in test [1] (first compound 6.325 µM); 0.611 in test [1] (first compound 20 µM); 0.639 with AZD5582 + Navitoclax (first compound 0.001581 µM); 0.543 with AZD5582 + Navitoclax (first compound 0.005 µM); 0.453 in the test with AZD5582 + Navitoclax (first compound 0.01581 µM); 0.518 in the test with AZD5582 + Navitoclax (first compound 0.05 µM). Further, the relative viability stood at 0.28 in test [2] (first compound 0.2 µM); 0.309 in test [2] (first compound 0.6325 µM); 0.272 in test [2] (first compound 2 µM); 0.257 in test [2] (first compound 6.325 µM); 0.236 in test [2] (first compound 20 µM).

On to NCI-H460, for which the relative viability with AZD5582 + Dasatinib (first compound 0.001581 µM) was found to be 0.439; with AZD5582 + Dasatinib (first compound 0.005 µM), 0.578; with AZD5582 + Dasatinib (first compound 0.01581 µM), 0.429; in the test with AZD5582 + Dasatinib (first compound 0.05 µM), 0.362; in test [1] (first compound 0.2 µM) it was 0.441; in test [1] (first compound 0.6325 µM), 0.418. Further, the relative viability in test [1] (first compound 2 µM) worked out at 0.518; in test [1] (first compound 6.325 µM) it was 0.368; in test [1] (first compound 20 µM) it was 0.339; with AZD5582 + Navitoclax (first compound 0.001581 µM), 1.08; with AZD5582 + Navitoclax (first compound 0.005 µM), 1.03; with AZD5582 + Navitoclax (first compound 0.01581 µM), 1.06. Further, the relative viability in the test with AZD5582 + Navitoclax (first compound 0.05 µM) was 1.03; in test [2] (first compound 0.2 µM), 0.0579; in test [2] (first compound 0.6325 µM), 0.0556; in test [2] (first compound 2 µM), 0.0638; in test [2] (first compound 6.325 µM), 0.0585; in test [2] (first compound 20 µM), 0.0573.
